Laboratory results from paper PMC7101356, “Cross-site and cross-platform variability of automated patch clamp assessments of drug effects on human cardiac currents in recombinant cells” (Scientific Reports, 2020).
pIC50: −log10 of the molar value.

How the values were obtained:
[1] = based on CiPA evaluations; cited from earlier work
peak hNav1.5 = target: T1, peak hNav1.5 (Homo sapiens, UniProt Q14524); experiment: Automated patch clamp, peak hNav1.5 current block; format: cell-based; conditions: for nH (=constant), peak hNav1.5 Na+ current inhibition: Hill slope held constant in fit
T1 construct: expressed in transfected cells; host or cells: HEK293 or CHO, depending on site
T1 sequence (Q14524 whole entry): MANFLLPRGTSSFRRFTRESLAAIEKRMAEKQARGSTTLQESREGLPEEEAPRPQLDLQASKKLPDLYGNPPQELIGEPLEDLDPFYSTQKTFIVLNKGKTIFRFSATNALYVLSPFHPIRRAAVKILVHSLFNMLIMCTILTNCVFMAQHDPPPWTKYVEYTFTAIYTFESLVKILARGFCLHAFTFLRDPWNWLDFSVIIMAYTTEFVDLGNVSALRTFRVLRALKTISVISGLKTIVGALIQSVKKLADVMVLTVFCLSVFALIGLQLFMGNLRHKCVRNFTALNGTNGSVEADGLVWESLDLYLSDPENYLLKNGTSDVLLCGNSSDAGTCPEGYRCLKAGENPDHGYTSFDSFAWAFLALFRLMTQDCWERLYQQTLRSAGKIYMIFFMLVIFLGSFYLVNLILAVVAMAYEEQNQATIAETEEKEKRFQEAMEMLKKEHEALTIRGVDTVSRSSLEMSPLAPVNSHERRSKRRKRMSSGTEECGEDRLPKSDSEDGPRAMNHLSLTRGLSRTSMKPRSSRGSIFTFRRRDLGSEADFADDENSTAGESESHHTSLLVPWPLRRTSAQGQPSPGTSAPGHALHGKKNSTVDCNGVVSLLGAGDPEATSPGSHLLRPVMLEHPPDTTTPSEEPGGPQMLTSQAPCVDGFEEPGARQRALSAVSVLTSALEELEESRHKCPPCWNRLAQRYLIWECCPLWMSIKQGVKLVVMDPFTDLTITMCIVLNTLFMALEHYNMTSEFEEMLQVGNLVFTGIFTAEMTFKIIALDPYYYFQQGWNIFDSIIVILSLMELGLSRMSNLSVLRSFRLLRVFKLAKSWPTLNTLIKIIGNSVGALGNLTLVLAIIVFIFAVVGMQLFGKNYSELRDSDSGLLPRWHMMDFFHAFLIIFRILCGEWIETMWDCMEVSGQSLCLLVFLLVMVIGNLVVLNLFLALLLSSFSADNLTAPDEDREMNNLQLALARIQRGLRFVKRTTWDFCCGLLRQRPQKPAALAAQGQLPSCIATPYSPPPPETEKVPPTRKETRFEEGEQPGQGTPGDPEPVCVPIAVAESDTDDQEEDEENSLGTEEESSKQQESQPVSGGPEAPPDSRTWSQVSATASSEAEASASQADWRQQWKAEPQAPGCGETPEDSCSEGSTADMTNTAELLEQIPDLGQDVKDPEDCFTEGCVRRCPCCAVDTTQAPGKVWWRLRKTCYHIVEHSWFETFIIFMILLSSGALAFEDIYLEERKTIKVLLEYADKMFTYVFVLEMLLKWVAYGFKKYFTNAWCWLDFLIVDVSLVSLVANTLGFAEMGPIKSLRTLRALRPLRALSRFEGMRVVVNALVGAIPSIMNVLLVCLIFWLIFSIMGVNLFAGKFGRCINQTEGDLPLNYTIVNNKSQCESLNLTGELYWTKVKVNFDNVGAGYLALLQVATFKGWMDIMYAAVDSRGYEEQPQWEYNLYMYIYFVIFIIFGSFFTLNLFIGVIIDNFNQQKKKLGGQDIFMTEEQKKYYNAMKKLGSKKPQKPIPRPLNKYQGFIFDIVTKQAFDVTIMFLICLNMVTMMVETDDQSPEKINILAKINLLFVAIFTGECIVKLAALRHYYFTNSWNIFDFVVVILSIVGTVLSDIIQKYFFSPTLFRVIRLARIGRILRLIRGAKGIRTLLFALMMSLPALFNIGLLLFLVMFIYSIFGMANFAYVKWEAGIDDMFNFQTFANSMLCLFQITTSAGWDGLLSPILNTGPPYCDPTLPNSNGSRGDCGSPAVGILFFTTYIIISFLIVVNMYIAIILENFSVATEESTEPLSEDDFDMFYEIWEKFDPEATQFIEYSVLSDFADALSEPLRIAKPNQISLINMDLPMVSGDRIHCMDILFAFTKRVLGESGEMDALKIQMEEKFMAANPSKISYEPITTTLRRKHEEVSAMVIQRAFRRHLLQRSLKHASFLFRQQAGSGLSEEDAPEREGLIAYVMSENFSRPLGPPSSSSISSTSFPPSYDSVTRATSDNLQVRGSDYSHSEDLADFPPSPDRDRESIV

late hNav1.5 = target: T2, late hNav1.5 (Homo sapiens, UniProt Q14524); experiment: Automated patch clamp, late hNav1.5 current block (ATX-II activated); format: cell-based; conditions: for Late hNav1.5 Na+ current inhibition, Mean: 1.00E-05 mol/L
T2 construct: expressed in transfected cells; host or cells: HEK293 or CHO, depending on site
T2 sequence (Q14524 whole entry): as above
Method: However, all external solutions contained 30 nM ATX-II in order to activate late current. Late current was measured at its maximum during the repolarizing ramp.
Concentration-response relationships for each test article were independently investigated, i.e., each cell received only one test article, typically evaluating multiple concentrations in a cumulative fashion (lowest to highest concentrations). However, some platforms tested only one concentration per well. Each concentration response was based on a minimum of four concentrations, with a minimum of three wells used for each concentration. In cases of high variability, more cells per concentration were recorded. Prior to drug addition, cells received an addition of vehicle to measure non-test article-related effects such as addition artifacts. At the end of the experiment, a supramaximal concentration of a known inhibitory reference compound was applied to assess leak current and appropriate responsiveness of the test system.
(§1) The steady state current at each concentration was used to determine the concentration-response relationships. Mean concentration-response data were fitted to a standard sigmoidal four-parameter logistic equation (GraphPad Prism 7; GraphPad Inc., La Jolla, CA) of the form: Y=Bottom+(Top−Bottom)/(1+10^∧(LogIC50−X)∗HillSlope) where Y is the current inhibition (in % of pre-drug control), X is the logarithm of drug concentration, and IC50 is the drug concentration producing half-maximal current inhibition. Curve fitting was performed using the following constraints: Top = 100%, Bottom = 0%, Hill Slope <2. No curve fitting was performed in cases with an obvious lack of a concentration-dependent current inhibition and/or small effect size (approximately ≤20%).

hCav1.2 = hCav1.2 (Homo sapiens, UniProt Q13936); experiment: Automated patch clamp, hCav1.2 current block; conditions: for pIC50: log IC50, half-maximal inhibitory concentration
Method: Peak current was measured during the step to 0 mV. Leak current was measured after applying a saturating concentration of a blocker such as cadmium (200 µM) at the end of each experiment to completely block hCav1.2 current.
Concentration-response relationships for each test article were independently investigated, i.e., each cell received only one test article, typically evaluating multiple concentrations in a cumulative fashion (lowest to highest concentrations). However, some platforms tested only one concentration per well. Each concentration response was based on a minimum of four concentrations, with a minimum of three wells used for each concentration. In cases of high variability, more cells per concentration were recorded. Prior to drug addition, cells received an addition of vehicle to measure non-test article-related effects such as addition artifacts. At the end of the experiment, a supramaximal concentration of a known inhibitory reference compound was applied to assess leak current and appropriate responsiveness of the test system. While it was recommended that a separate group of cells (n ≥ 3) be recorded for each experimental day to determine the baseline response to vehicle and to address day-to-day variability, this was not verified.
These criteria were applied to all APC platforms.
as §1

[2] = site s02_p2, corrected for rundown

CN(C)CCCN1c2ccccc2Sc2ccc(Cl)cc21 [cpz, chlorpromazine]
TdP Risk Category [1]: Intermediate

CN(CCOc1ccc(NS(C)(=O)=O)cc1)CCc1ccc(NS(C)(=O)=O)cc1 [dof, dofetilide]
TdP Risk Category [1]: High

C=C[C@H]1C[N@@]2CC[C@H]1C[C@@H]2[C@@H](O)c1ccnc2ccc(OC)cc12 [qui, quinidine]
Peak hNav1.5 Na+ current inhibition, Mean (peak hNav1.5; site_platform s01_p1, 1.00E-05 mol/L): 72.9% | Peak hNav1.5 Na+ current inhibition, Mean (peak hNav1.5; site_platform s01_p1, 1.00E-07 mol/L): 51.7% | nH (=constant), peak hNav1.5 Na+ current inhibition (peak hNav1.5; site_platform s01_p1): 1 | nH (=constant), peak hNav1.5 Na+ current inhibition (peak hNav1.5; site_platform s02_p2): 1 | nH (=constant), peak hNav1.5 Na+ current inhibition (peak hNav1.5; site_platform s04_p3): 1 | nH (=constant), peak hNav1.5 Na+ current inhibition (peak hNav1.5; site_platform s06_p4): 1 | nH (=constant), peak hNav1.5 Na+ current inhibition (peak hNav1.5; site_platform s07_p6): 1 | nH, Hill slope, peak hNav1.5 inhibition (peak hNav1.5; site_platform s10_p3): 1 | nH, Hill slope, peak hNav1.5 inhibition (peak hNav1.5; site_platform s11_p1): 1 | Peak hNav1.5 Na+ current inhibition, Mean (peak hNav1.5; site_platform s11_p1, 1.00E-05 mol/L): 30.0% | nH, Hill slope, peak hNav1.5 inhibition (peak hNav1.5; site_platform s12_p2): 1 | nH, Hill slope, peak hNav1.5 inhibition (peak hNav1.5; site_platform s13_p2): 1 | nH, Hill slope, peak hNav1.5 inhibition (peak hNav1.5; site_platform s14_p1): 1 | nH, Hill slope, peak hNav1.5 inhibition (peak hNav1.5; site_platform s15_p1): 1 | Peak hNav1.5 Na+ current inhibition, Mean (peak hNav1.5; site_platform s15_p1, 1.00E-05 mol/L): 52.7% | nH, Hill slope, peak hNav1.5 inhibition (peak hNav1.5; site_platform s16_p3): 1 | nH, Hill slope, peak hNav1.5 inhibition (peak hNav1.5; site_platform s17_p1): 1 | Peak hNav1.5 Na+ current inhibition, Mean (peak hNav1.5; site_platform s17_p1, 1.00E-05 mol/L): 54.0% | nH, Hill slope, peak hNav1.5 inhibition (peak hNav1.5; site_platform s18_p1): 1 | nH, Hill slope, peak hNav1.5 inhibition (peak hNav1.5; site_platform s19_p3): 1 | nH, Hill slope, late hNav1.5 inhibition (late hNav1.5; site_platform s06_p4): 0.91 | Late hNav1.5 Na+ current inhibition, Mean (late hNav1.5; site_platform s06_p4): 78.1% | nH, Hill slope, late hNav1.5 inhibition (late hNav1.5; site_platform s07_p6): 0.74 | Late hNav1.5 Na+ current inhibition, Mean (late hNav1.5; site_platform s07_p6): 46.2% | nH, Hill slope, late hNav1.5 inhibition (late hNav1.5; site_platform s13_p2): 0.63 | nH, Hill slope, late hNav1.5 inhibition (late hNav1.5; site_platform s14_p1): 2.00 | Late hNav1.5 Na+ current inhibition, Mean (late hNav1.5; site_platform s14_p1): 68.8% | TdP Risk Category [1]: High

COc1ccccc1OCC(O)CN1CCN(CC(=O)Nc2c(C)cccc2C)CC1 (stereo not shown) [ran, ranolazine]
TdP Risk Category [1]: Low | pIC50 (hCav1.2; [2]): 3.30 | pIC50 (hCav1.2; site s06_p4): 3.73 | pIC50 (hCav1.2; site s11_p1): 2.87 | pIC50 (hCav1.2; site s14_p1): 3.61 | pIC50 (hCav1.2; site s16_p3): 2.51 | pIC50 (hCav1.2; site s18_p1): 3.83 | Peak hCav1.2 Ca2+ current inhibition, Mean (hCav1.2; site s01_p1, 1.00E-04 mol/L): 9.0% | Peak hCav1.2 Ca2+ current inhibition, Mean (hCav1.2; site s01_p1, 3.00E-06 mol/L): -2.7% | nH, Hill slope (hCav1.2; [2]): 0.74 | Peak hCav1.2 Ca2+ current inhibition, Mean (hCav1.2; site s02_p2, corrected for rundown, 1.00E-04 mol/L): 22.9% | Peak hCav1.2 Ca2+ current inhibition, Mean (hCav1.2; site s02_p2, corrected for rundown, 3.00E-06 mol/L): -1.8% | nH, Hill slope (hCav1.2; site s06_p4): 2.00 | Peak hCav1.2 Ca2+ current inhibition, Mean (hCav1.2; site s06_p4, 1.00E-04 mol/L): 23.0% | Peak hCav1.2 Ca2+ current inhibition, Mean (hCav1.2; site s06_p4, 3.00E-06 mol/L): 12.9% | nH, Hill slope (hCav1.2; site s11_p1): 0.32 | Peak hCav1.2 Ca2+ current inhibition, Mean (hCav1.2; site s11_p1, 1.00E-04 mol/L): 33.0% | Peak hCav1.2 Ca2+ current inhibition, Mean (hCav1.2; site s11_p1, 3.00E-06 mol/L): 14.1% | nH, Hill slope (hCav1.2; site s14_p1): 1.42 | Peak hCav1.2 Ca2+ current inhibition, Mean (hCav1.2; site s14_p1, 1.00E-04 mol/L): 21.7% | Peak hCav1.2 Ca2+ current inhibition, Mean (hCav1.2; site s14_p1, 3.00E-06 mol/L): -1.7% | nH, Hill slope (hCav1.2; site s16_p3): 0.24 | Peak hCav1.2 Ca2+ current inhibition, Mean (hCav1.2; site s16_p3, 1.00E-04 mol/L): 31.8% | Peak hCav1.2 Ca2+ current inhibition, Mean (hCav1.2; site s16_p3, 3.00E-06 mol/L): 16.5% | nH, Hill slope (hCav1.2; site s18_p1): 2.00 | Peak hCav1.2 Ca2+ current inhibition, Mean (hCav1.2; site s18_p1, 1.00E-04 mol/L): 36.1% | Peak hCav1.2 Ca2+ current inhibition, Mean (hCav1.2; site s18_p1, 3.00E-06 mol/L): -14.2%

CC(C)(C)c1ccc(C(O)CCCN2CCC(C(O)(c3ccccc3)c3ccccc3)CC2)cc1 (stereo not shown) [ter, terfenadine]
nH, Hill slope (hCav1.2; site s01_p1): 1.62 | Peak hCav1.2 Ca2+ current inhibition, Mean (hCav1.2; site s01_p1, 3.00E-07 mol/L): 35.6% | nH, Hill slope (hCav1.2; [2]): 1.40 | Peak hCav1.2 Ca2+ current inhibition, Mean (hCav1.2; site s02_p2, corrected for rundown, 3.00E-07 mol/L): 74.7% | nH, Hill slope (hCav1.2; site s04_p3): 0.41 | Peak hCav1.2 Ca2+ current inhibition, Mean (hCav1.2; site s04_p3, 3.00E-07 mol/L): 32.9% | nH, Hill slope (hCav1.2; site s16_p3): 0.65 | Peak hCav1.2 Ca2+ current inhibition, Mean (hCav1.2; site s16_p3, 3.00E-07 mol/L): 52.1% | nH, Hill slope (hCav1.2; site s18_p1): 2.00 | Peak hCav1.2 Ca2+ current inhibition, Mean (hCav1.2; site s18_p1, 3.00E-07 mol/L): 56.4%
